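Five compound concentrations were applied to cells in 96-well plates for 48 hours; endpoints were derived by simple linear interpolation of the resulting dose-response curve. Abbreviation: GI50, concentration required for 50% inhibition of growth.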 Activity calls are given as the source filed them. Rule as the data show it: active = GI50 up to about 1.1 µM and inactive = higher.
What was measured:
Assay in all cases: NCI anticancer screen, dose series, 48 h
[1] = test system: LOX IMVI
[2] = test system: NCI-H23
[3] = test system: EKVX
[4] = test system: IGROV-1
[5] = test system: KM12
[6] = test system: SF-268
[7] = test system: SF-539
[8] = test system: NCI-H226
[9] = test system: UACC-257
[10] = test system: NCI-H522
[11] = test system: HOP-62
[12] = test system: HCT-116
[13] = test system: SK-MEL-2
[14] = test system: U-251
[15] = test system: BT-549
[16] = test system: MOLT-4
[17] = test system: RPMI-8226
[18] = test system: CCRF-CEM
[19] = test system: NCI-H460
[20] = test system: HOP-92

Row | SMILES | GI50 [1] | GI50 [2] | GI50 [3] | GI50 [4] | GI50 [5] | GI50 [6] | GI50 [7] | GI50 [8] | GI50 [9] | GI50 [10] | GI50 [11] | GI50 [12] | GI50 [13] | GI50 [14] | GI50 [15] | GI50 [16] | GI50 [17] | GI50 [18] | GI50 [19] | GI50 [20]
1 | COCO[C@@H]1C[C@H]2C(=O)Nc3ccccc3C(=O)N2C1 | 29.2 µM (inactive) | 51.4 µM (inactive) | > 100 µM (inactive) | 33 µM (inactive) | > 100 µM (inactive) | 36.4 µM (inactive) | 38.7 µM (inactive) | 3.91 µM (inactive) | > 100 µM (inactive) | 16.2 µM (inactive) | 39.8 µM (inactive) | 85.3 µM (inactive) | 46.6 µM (inactive) | 45.7 µM (inactive) | 35.3 µM (inactive) |  |  |  |  | 
2 | O=C(NNC(=O)c1csc(NC(=S)NC2CCCCC2)n1)c1ccccc1 | 10.3 µM (inactive) | 16.7 µM (inactive) | 1.84 µM (inactive) | 1.96 µM (inactive) | 8.13 µM (inactive) | 5.66 µM (inactive) | 15 µM (inactive) | 7.24 µM (inactive) | 7.96 µM (inactive) | 11.7 µM (inactive) | 14 µM (inactive) | 2.7 µM (inactive) | 22.4 µM (inactive) | 3.71 µM (inactive) | 17.3 µM (inactive) | 4.2 µM (inactive) | 10 µM (inactive) | 3.61 µM (inactive) |  | 
3 | Cc1ccc(S(=O)(=O)N2CCCSCCSCCCN(S(=O)(=O)c3ccc(C)cc3)CC2)cc1 |  | > 100 µM (inactive) | > 100 µM (inactive) | > 100 µM (inactive) | > 100 µM (inactive) | > 100 µM (inactive) | > 100 µM (inactive) | > 100 µM (inactive) | > 100 µM (inactive) |  | > 100 µM (inactive) | > 100 µM (inactive) | > 100 µM (inactive) | > 100 µM (inactive) | > 100 µM (inactive) | > 100 µM (inactive) | > 100 µM (inactive) |  | > 100 µM (inactive) | 
4 | O=C1CCC2SC1CCC2=O | > 100 µM (inactive) | > 100 µM (inactive) | > 100 µM (inactive) | > 100 µM (inactive) | > 100 µM (inactive) | > 100 µM (inactive) | > 100 µM (inactive) | > 100 µM (inactive) | > 100 µM (inactive) | > 100 µM (inactive) | > 100 µM (inactive) | > 100 µM (inactive) | > 100 µM (inactive) | > 100 µM (inactive) | > 100 µM (inactive) | > 100 µM (inactive) |  | > 100 µM (inactive) | > 100 µM (inactive) | > 100 µM (inactive)
5 | CCN(CC)CCN(/C(=N/c1ccccc1)N1CCCCC1)c1ccccc1 | 3.14 µM (inactive) | 4.38 µM (inactive) | 14.1 µM (inactive) | 2.75 µM (inactive) | 5.2 µM (inactive) | 27.6 µM (inactive) | 18.7 µM (inactive) | 9.23 µM (inactive) | 10.6 µM (inactive) | 2.62 µM (inactive) | 8.18 µM (inactive) | 0.498 µM (active) | 14.5 µM (inactive) | 12.7 µM (inactive) | 13.7 µM (inactive) | 2.99 µM (inactive) | 2.54 µM (inactive) | 4.49 µM (inactive) | 4.78 µM (inactive) | 
6 | O=[N+]([O-])c1ccc(C2=NOC(c3ccccc3)N2C23CC4CC(CC(C4)C2)C3)cc1 (centres undefined) | 15.9 µM (inactive) | 41 µM (inactive) | 48.1 µM (inactive) | 24.8 µM (inactive) | 27.4 µM (inactive) | 59.6 µM (inactive) | 54 µM (inactive) | 30.5 µM (inactive) | 47.8 µM (inactive) | 19 µM (inactive) | 26.5 µM (inactive) | 22.1 µM (inactive) | 16.4 µM (inactive) | 34.6 µM (inactive) | 19.8 µM (inactive) | 17.5 µM (inactive) | > 10 µM (inactive) | 21.7 µM (inactive) | 19.3 µM (inactive) | 
7 | CCOC(=O)c1cc(=O)c2cccc3c2n1CCS3 | > 100 µM (inactive) | > 100 µM (inactive) | > 100 µM (inactive) | > 100 µM (inactive) | > 100 µM (inactive) | > 100 µM (inactive) | > 100 µM (inactive) | > 100 µM (inactive) | > 100 µM (inactive) | 91.4 µM (inactive) | > 100 µM (inactive) | > 100 µM (inactive) | > 100 µM (inactive) | > 100 µM (inactive) | 42.9 µM (inactive) | > 100 µM (inactive) |  | > 100 µM (inactive) | 83.9 µM (inactive) | > 100 µM (inactive)
8 | O=C(NNC(=O)c1ccccc1O)c1cccs1 | 66.4 µM (inactive) |  | 34.4 µM (inactive) | 30.7 µM (inactive) | 39.4 µM (inactive) | 19 µM (inactive) | > 100 µM (inactive) | 5.79 µM (inactive) | > 100 µM (inactive) | 3.51 µM (inactive) | 42.6 µM (inactive) | 42.1 µM (inactive) | > 100 µM (inactive) | > 100 µM (inactive) | > 100 µM (inactive) | 54.7 µM (inactive) | > 100 µM (inactive) | > 100 µM (inactive) | 56.9 µM (inactive) | 
9 | CCCCCCCCCCCCCCCCOP(=O)([O-])OCC[N+](C)(C)C1CC(C)(C)N(O)C(C)(C)C1 |  | > 100 µM (inactive) | > 100 µM (inactive) |  | > 100 µM (inactive) | > 100 µM (inactive) | > 100 µM (inactive) | > 100 µM (inactive) | > 100 µM (inactive) | > 100 µM (inactive) | > 100 µM (inactive) | > 100 µM (inactive) | > 100 µM (inactive) | > 100 µM (inactive) | > 100 µM (inactive) |  |  |  | > 100 µM (inactive) | > 100 µM (inactive)
10 | CC(=O)OCC1OC(OC(C)=O)C(Nc2ncc(-c3ccc(C)cc3)s2)C(OC(C)=O)C1OC(C)=O (centres undefined) | 13.2 µM (inactive) | 12 µM (inactive) | 14.3 µM (inactive) | 17.3 µM (inactive) | > 10 µM (inactive) | 16.5 µM (inactive) | 20.7 µM (inactive) | 26.4 µM (inactive) | 20.1 µM (inactive) | 15.7 µM (inactive) | 20.4 µM (inactive) | 16.4 µM (inactive) | 22.6 µM (inactive) | 17 µM (inactive) | 18.6 µM (inactive) | 11 µM (inactive) | 12.9 µM (inactive) | 4.4 µM (inactive) | 18.5 µM (inactive) | 
11 | CC1=C(/C=C/Cl)CC(Cl)C(C)(Cl)C1 (centres undefined) | > 100 µM (inactive) | > 100 µM (inactive) | > 100 µM (inactive) | > 100 µM (inactive) | > 100 µM (inactive) | > 100 µM (inactive) | > 100 µM (inactive) | > 100 µM (inactive) | > 100 µM (inactive) | 91.2 µM (inactive) |  | > 100 µM (inactive) | > 100 µM (inactive) | > 100 µM (inactive) | > 100 µM (inactive) | 63.5 µM (inactive) |  | 19.6 µM (inactive) | > 100 µM (inactive) | 53 µM (inactive)
12 | CC1(C)CC2(C)CC1CC2NC(=O)CCN1CCOCC1 (centres undefined) |  | > 100 µM (inactive) | > 100 µM (inactive) | > 100 µM (inactive) | > 100 µM (inactive) | > 100 µM (inactive) | > 100 µM (inactive) | > 100 µM (inactive) | > 100 µM (inactive) | > 100 µM (inactive) | > 100 µM (inactive) | > 100 µM (inactive) |  | > 100 µM (inactive) | > 100 µM (inactive) | > 100 µM (inactive) |  | > 100 µM (inactive) | > 100 µM (inactive) | > 100 µM (inactive)
13 | COc1ccccc1Cn1nc(OC)c2cc([N+](=O)[O-])ccc21 | > 100 µM (inactive) | 35.6 µM (inactive) | 35.6 µM (inactive) | 34.8 µM (inactive) | > 100 µM (inactive) | 13.1 µM (inactive) | 13.8 µM (inactive) | 42.1 µM (inactive) | > 74 µM (inactive) | 17.9 µM (inactive) | 4.48 µM (inactive) | 32.7 µM (inactive) | 19.7 µM (inactive) | 12 µM (inactive) | 16.9 µM (inactive) | > 100 µM (inactive) |  | > 100 µM (inactive) | 66.7 µM (inactive) | 0.383 µM (active)
14 | CSc1nc(NC2CC2)c2c(n1)Sc1nc3ccccc3n1N=C2 | 31.8 µM (inactive) | 21.4 µM (inactive) | 24.2 µM (inactive) | 42.6 µM (inactive) | 56.2 µM (inactive) | 17.1 µM (inactive) | 12.2 µM (inactive) | 16.8 µM (inactive) | 41.3 µM (inactive) | 16.9 µM (inactive) | 16.3 µM (inactive) | 9.73 µM (inactive) | 30.3 µM (inactive) | 20 µM (inactive) | 34.2 µM (inactive) | > 100 µM (inactive) |  | > 100 µM (inactive) | 25.1 µM (inactive) | 21 µM (inactive)
15 | O=C(/C=C/c1ccc(F)c(F)c1)OCCc1ccccc1 | 89.9 µM (inactive) | 72.9 µM (inactive) | > 100 µM (inactive) | > 100 µM (inactive) | > 100 µM (inactive) | > 100 µM (inactive) | > 100 µM (inactive) | > 100 µM (inactive) | > 100 µM (inactive) | 38.6 µM (inactive) | > 100 µM (inactive) | 74.5 µM (inactive) | > 100 µM (inactive) | > 100 µM (inactive) | > 100 µM (inactive) | 18 µM (inactive) | 77.6 µM (inactive) | 29.8 µM (inactive) | > 100 µM (inactive) | 
